Laboratory results from article PMC12057341, “In vitro pharmacokinetic/pharmacodynamic modeling of the effect of mucin on polymyxin B activity against Acinetobacter baumannii” (Antimicrobial Agents and Chemotherapy, 2025).
Where a SMILES comes first, the peptide text is derived from it. Bridges are numbered along the chain shown (N, C = ends). [ ]: non-standard residue; d: D form. The star is where a group is joined. X1 = CC[C@H](C)CCCCC(=O)*; Dab = NCC[C@H](N)C(=O)O

Tested on: Acinetobacter baumannii AB121-D0
Test: MIC at the end (T30h) of TK experiments after regrowth, AB121-D0
Assay type: cell-based
Experimental: PMB MICs of both A. baumannii strains were determined in commercial CAMHB (BioMérieux, Marcy-l’Etoile, France) according to the European Committee on Antimicrobial Susceptibility Testing and Clinical and Laboratory Standards Institute (CLSI) recommendations ([33], [34]). PMB MICs of the two A. baumannii isolates were also determined at least in duplicate in CAMHB supplemented with 1% of mucin.
Samples were centrifuged (8 minutes at 8,000 rpm); then, the supernates were removed, and the pellets were stored at −80°C in CAMHB-glycerol 20%. A minimum bacterial density of ~10^5 CFU/mL in samples collected at the end of TK experiments was required for MIC susceptibility testing and sequencing.
Prior to MIC testing, the isolates were streaked onto a drug-free Mueller-Hinton agar plate and incubated for 24 h.

SMILES: CC[C@H](C)CCCCC(=O)N[C@@H](CCN)C(=O)N[C@H](C(=O)N[C@@H](CCN)C(=O)N[C@H]1CCNC(=O)[C@H]([C@@H](C)O)NC(=O)[C@H](CCN)NC(=O)[C@H](CCN)NC(=O)[C@H](CC(C)C)NC(=O)[C@@H](Cc2ccccc2)NC(=O)[C@H](CCN)NC1=O)[C@@H](C)O [PMB, polymyxin B] (X1-[Dab]T[Dab][Dab][Dab][dF]L[Dab][Dab]T; lactam 4-C)
- MIC fold-change vs control of respective replicate (TK in CAMHB + 1% mucin, PMB 0.25 mg/L, replicate 3, pmrB Phe164Ile): >64
- MIC fold-change vs control of respective replicate (TK in CAMHB + 1% mucin, PMB 0.5 mg/L, replicate 2, pmrB Pro170Leu): >32
- MIC fold-change vs control of respective replicate (TK in CAMHB + 1% mucin, PMB 0.5 mg/L, replicate 3, pmrB Arg231Leu): >64
- MIC fold-change vs control of respective replicate (TK in CAMHB + 1% mucin, PMB 13 mg/L, replicate 4, pmrB Ala227Val): >64
- MIC fold-change vs control of respective replicate (TK in CAMHB, PMB 0.5 mg/L, replicate 2, pmrB Arg263His): >32
- MIC fold-change vs control of respective replicate (TK in CAMHB, PMB 0.5 mg/L, replicate 3, ISAba1 insertion in the promoter of pmrC_3): 32
- MIC fold-change vs control of respective replicate (TK in CAMHB, PMB 0.5 mg/L, replicate 4, pmrB Asn353Tyr): >64
- MIC fold-change vs control of respective replicate (TK in CAMHB, PMB 1 mg/L, replicate 4, pmrB 16.25dup): 32
- MIC fold-change vs control of respective replicate (TK in CAMHB, PMB 4 mg/L, replicate 2, pmrB Pro170Leu): >32
- Regrowth samples at T30h with MIC increased (≥32-fold) compared to control (TK in the absence of mucin, 6 out of 10 samples): 60%
- Regrowth samples at T30h with MIC increased (same order of magnitude, ≥32-fold) compared to control (TK in the presence of mucin, 5 out of 16 samples): 31%
- Cases of regrowth associated with an increase in the MIC at T30h (with and without mucin together): 42%
